This assay has as its system Plasmodium falciparum. Briefly: GSK_TCMDC: Inhibition of Plasmodium falciparum 3D7 in whole erythrocytes, using parasite LDH activity as an index of growth. Format: functional, organism-based. As to conditions: Plasmodium falciparum, 3D7.
For the compound `COc1ccc2c(N/N=C/c3ccccc3[N+](=O)[O-])ccnc2c1`, the XC50 was determined as 739 nM.

As to `CCN(CC)CCN(Cc1ccc(-c2ccc(C(F)(F)F)cc2)cc1)C(=O)Cn1c(/C=C/c2ccco2)nc(=O)c2ccccc21`, the XC50 is 870 nM.

`CC1(C(=O)Nc2ccc([N+](=O)[O-])cc2O)CC2c3ccccc3C1c1ccccc12` (centres undefined) displayed an XC50 of 715 nM. As for `C=CC[C@H](NC(=O)c1ccc(NS(=O)(=O)c2ccc3nc(N)[nH]c(=O)c3c2)cc1)C(=O)OCCCC`, the figure is 154 nM; as for `CCN1CCN(Cc2ccc(NC(=O)c3cc4ccc5cccnc5c4[nH]3)cc2)CC1`, 848 nM; as for `O=C(Nc1cc(Cl)cc(Cl)c1)c1cnn(-c2ccc(F)cc2)c1C1CCNCC1`, 853 nM. As for `COc1ccc2nc3cc(Cl)ccc3c(NCCCN3CCNCC3)c2c1`, the figure is 232 nM. The result for `Nc1ncc(-c2ccccc2)cc1-c1cccc2ncccc12` reads 272 nM.

In turn, `COc1cc(CN2CCC(CO)(Cc3cccc(C(F)(F)F)c3)CC2)c(Cl)cc1O` gave an XC50 of 896 nM. `Nc1nc(-c2ccc3c(Nc4ccc(F)c(Cl)c4)ccnc3c2)cs1` registered an XC50 of 868 nM.

As to `COc1ccc(OCCCCON2C(=N)N=C(N)NC2(C)C)cc1`, the XC50 was 3.2 nM. As for `Fc1ccc(NC(S)=NN=Cc2ccccn2)cc1`, the figure is 775 nM; as for `CC(C)C[C@H](NC(=O)c1cc2ccccc2s1)C(=O)N[C@H]1CCN(Cc2ccc(OC[C@@H]3CCCN3C)c3ccccc23)C1`, 1160 nM; as for `Cc1cccc(C)c1CNc1ccnc2cc(C#N)ccc12`, 684 nM.

Consider `COc1cccc(C(=O)Nc2ccc(Nc3nc(C)cc(N(C)C)n3)cc2)c1`, for which the XC50 turned out to be 940 nM. As for `OCCN1CCN(C(=S)Nc2ccccc2)CC1`, the figure is 936 nM; as for `CCN(CC)C(=O)c1cnc(-c2ccccc2)nc1Oc1cccc(Cl)c1`, 1160 nM; as for `CC(C)OC(=O)c1ccc(NC(=O)N[C@@H](Cc2ccc(O)cc2)C(=O)NC2CCC(CCN3C4CCC3c3ccccc34)CC2)cc1` (some centres undefined), 829 nM. As for `COC(=O)c1ccc2c(-c3nc4ccc(OC)cc4[nH]3)c[nH]c2c1`, the figure is 876 nM. On to `Cc1cccc(-c2ccc(NC(=O)C3CCN(Cc4cccc(O)c4)CC3)cc2)c1`, for which the XC50 stood at 975 nM.

With `COc1cc2ccccc2c(OC)c1CCNCCCCNCCc1c(OC)cc2ccccc2c1OC`, the XC50 is 891 nM.

`CCCc1c(C(=O)NC2CCC(CN3CCC(c4c[nH]c5ccccc45)CC3)CC2)cnn1-c1ccc(Cl)cc1` (centres undefined) came in with an XC50 of 763 nM. As for `COc1ccc2nccc([C@@H](O)CN3CCC(NCc4cc5sccc5nc4C(F)(F)F)CC3)c2c1`, the figure is 913 nM; as for `Cc1ccccc1C1CCN(C2CCC(NC(=O)/C=C/c3c[nH]c4ccccc34)CC2)CC1` (centres undefined), 810 nM; as for `CNc1ccc(CNCc2ccc(-c3ccc(-c4nc5cccc(C)c5[nH]4)s3)cc2)cc1`, 661 nM. The result for `Cc1[nH]c2ccccc2c1C1CCN(CCCCNC(=O)c2ccc(-c3ccc(C#N)cc3)cc2)CC1` reads 704 nM. Consider `COc1ccccc1CCNc1nc(C)cc(N[C@@H](Cc2ccccc2)C(=O)NCc2cccc(F)c2)n1`, for which the XC50 stood at 867 nM. The compound `CC(C)c1ccc(NC(=O)Nc2ccc(Cn3ncc(N4CCCNCC4)c(Cl)c3=O)cc2)cc1` had an XC50 of 1050 nM.

On to `CN1CCC(C(=O)N(Cc2ccc(-c3ccc(CNCCc4ccccc4)cn3)cc2)C2Cc3ccccc3C2)CC1`, for which the XC50 stood at 1060 nM. As for `CC(C)(C)CC(C)(C)c1ccc(O)c(CNC2CCCCC2)c1`, the figure is 64.9 nM; as for `CC1CCNc2ccc(Cc3cnc(N)nc3N)cc21` (centres undefined), 1040 nM. The result for `N=c1sc2ccccc2n1CC(O)c1ccc(Cl)c(Cl)c1` (centres undefined) reads 800 nM; that for `Nc1c2c(nc3ccc(Oc4ccc(Cl)cc4)cc13)CCCC2`, 972 nM. The result for `C=CCn1c(SCC(=O)Nc2cc(C)ccc2OC)nc2sc(C)cc2c1=O` reads 417 nM. Take `O=C(Nc1cc(C(F)(F)F)cc(C(F)(F)F)c1)c1cc(C(F)(F)F)cc(C(F)(F)F)c1`: the XC50 was determined as 872 nM. The result for `COc1ccc2nccc([C@@H](O)CN3CCC(NCCOc4cccc(F)c4F)CC3)c2c1` reads 244 nM; that for `COc1ccc(-c2ccc(NC(=O)c3cccc(C#N)c3)cc2)cc1CN1CCNCC1`, 728 nM; that for `COc1ccccc1CCNc1nc(C)cc(N[C@@H](Cc2ccccc2)C(=O)NCCc2ccccc2)n1`, 1110 nM. The result for `CC(Cc1ccc(OCCCCOc2ccccc2)cc1)NCCCn1ccnc1` (centres undefined) reads 167 nM. As for `COc1cc(NCC(O)CNc2cc(Cl)nc3ccccc23)nc2ccccc12` (centres undefined), the figure is 416 nM; as for `O=C(COc1ccc(Cl)c(Cl)c1)NCCCCCN1CCCN(C(=O)Nc2cc(Cl)cc(Cl)c2)CC1`, 1140 nM; as for `CC(C)C[C@@H](NC(=O)NC1CCC(CCN2C3CCC2CC(OC(=O)C(CO)c2ccccc2)C3)CC1)C(O)(c1ccccc1)c1ccccc1` (some centres undefined), 1070 nM.

As to `Cc1cc(=NN=Cc2ccccc2F)c2ccccc2[nH]1`, the XC50 was determined as 919 nM. `C[C@@H](COc1ccc(-c2ccccc2)cc1)CON1C(N)=NC(N)=NC1(C)C` gave an XC50 of 3.2 nM. `N=c1n(CCN2CCCCC2)c2ccccc2n1CC(O)c1ccc(Cl)c(Cl)c1` (centres undefined) came in with an XC50 of 320 nM. The compound `CCN(CC)c1cc(C)c2cc(NC(=O)c3cc(=O)c4ccccc4o3)ccc2n1` showed an XC50 of 224 nM. The result for `O=C(NCCCCN1CCC(c2ccc(-c3ccco3)cc2)CC1)c1ccc(NC(=O)c2ccc(Cl)cc2)cc1` reads 538 nM. In turn, `OCCN1CCN(Cc2ccc(-c3ccc(-c4nc5cc(C(F)(F)F)ccc5[nH]4)s3)cc2)CC1` came in with an XC50 of 379 nM. The result for `Cc1ccc(Nc2nc(C)cc(Nc3cccc(C#N)c3)n2)cc1` reads 978 nM.

The compound `N#Cc1cccc(C(=O)Nc2cccc(-c3ccc(CN4CCC(O)CC4)cc3)c2)c1` returned an XC50 of 1300 nM. As for `O=C(Nc1cccc(Cl)c1N1CCOCC1)C(Cl)(Cl)Cl`, the figure is 983 nM; as for `Cc1nc(C)c(-c2ccc(S(=O)(=O)c3ccc(Cl)cc3)cc2)c(O)c1Cl`, 140 nM; as for `Cc1cccc2nc(-c3cccc(-c4cccc(NC(=O)C(C)CN5CCN(C)CC5)c4)c3)[nH]c12` (centres undefined), 537 nM. As for `NC(=O)c1cnc2ccc(-c3cncs3)cc2c1Nc1ccc(F)c(Cl)c1`, the figure is 182 nM; as for `NC1CCCN(Cc2cccc(-c3ccc(-c4nc5cc(C(F)(F)F)ccc5[nH]4)cc3)c2)C1` (centres undefined), 518 nM; as for `FC(F)(F)c1ccc2c(NCCc3ccccc3)ccnc2c1`, 1270 nM. Turning to `CN(C(=O)NCCc1ccccc1)C1CCN(CCCCCNC(=O)/C=C/c2ccc(Cl)c(Cl)c2)CC1`, the XC50 was 678 nM. As for `CCNC(=O)Nc1cccc(-c2ccc(-c3nc4cccc(C)c4[nH]3)s2)c1`, the figure is 766 nM. As for `CC(=O)Nc1cccc(CNc2cc(C)nc(Nc3ccc(C)cc3)n2)c1`, the figure is 1140 nM; as for `O=C(Nc1ccc(Cl)cc1)Nc1ccc2c(c1)N1CCN=C1S2`, 592 nM. `COc1ccc(NC(=O)NCC2CCCN(CCCCCNC(=O)/C=C/c3ccc(Cl)c(Cl)c3)C2)c(OC)c1` (centres undefined) registered an XC50 of 859 nM.

Consider `O=C(Nc1ccc(C(F)(F)F)cc1)c1cc(Br)cnc1NCCCn1ccnc1`, for which the XC50 stood at 968 nM.

Turning to `S=C(NCCc1ccccc1)Nc1ccc2ncsc2c1`, the XC50 was determined as 1400 nM.

Take `COc1cc(Cc2cnc(N)nc2N)ccc1OCc1cccc(Oc2ccccc2)c1`: the XC50 was determined as 1330 nM. The result for `Cc1cccc2nc(-c3cccc(-c4cccc(C(=O)NCCN5CCCC5)c4)c3)[nH]c12` reads 833 nM. The result for `COc1nc2c(CCN3CC[C@H](NCc4cc(C#N)c5c(c4)OCCO5)[C@H](O)C3)ccnc2cc1F` reads 783 nM. As for `COc1ccc2nccc([C@@H](O)CN3CCC(NC(=O)C(=O)c4c[nH]c5c(C)cccc45)CC3)c2c1`, the figure is 307 nM; as for `CN(C)C(=O)c1cc(CNCc2ccccc2)ccc1-c1cccc(CNCc2ccc(-c3ccccc3)cc2)c1`, 1050 nM; as for `CCN(CC)c1ccccc1CNC(=O)c1cc(Cl)c(N)cc1OC`, 213 nM. In the case of `N#Cc1ccc(CN2CCC(Oc3ccc(NC(=O)c4ccsc4)cc3Cl)C2)cc1` (centres undefined), the XC50 turned out to be 674 nM. In the case of `CC(=O)Nc1ccc(C#Cc2ccc(-c3c(C)[nH]c(C)c(Cl)c3=O)cc2)cc1`, the XC50 was found to be 462 nM.

On to `CC(C)N1CCN(CCCCNc2c3ccccc3nc3ccccc23)CC1`, for which the XC50 stood at 540 nM. In the case of `O=C1Nc2ccc3ncccc3c2/C1=C/Nc1ccc(N2CCN(CCO)CC2)cc1`, the XC50 came to 1270 nM.

`COc1ccc(-c2ccc(NC(=O)c3ccc(C#N)cc3)cc2)cc1CN1CCNCC1` had an XC50 of 505 nM. As for `COc1ccc(Nc2nc(NCc3cccc(NS(C)(=O)=O)c3)cc(-c3ccc(OC)cc3)n2)cc1`, the figure is 1220 nM; as for `NC(=O)c1ccsc1NC(=O)CNC(c1ccccc1)c1ccccc1`, 938 nM.

In the case of `O=C(C1CCCCC1)N1CCOC(CCN2CCC(c3ccccc3)CC2)(c2ccc(Cl)c(Cl)c2)C1` (centres undefined), the XC50 was 930 nM.

For `O=C(Nc1ccc(SC(F)(F)F)cc1)Nc1ccc(Cl)c(Cl)c1`, the XC50 amounted to 909 nM. `CC1(CCc2ccccc2)N=C(Nc2ccc(Cl)cc2)N=C(N)C1c1ccc(Cl)c(Cl)c1` (centres undefined) showed an XC50 of 221 nM.

`COc1ccc(NC(=O)Nc2nc3ccccc3s2)cc1N1CCN(C)CC1`: the XC50 was 703 nM. For `COc1cc(C(=O)Nc2ccc3nc(N4CCN(C)CC4)cc(C)c3c2)cc(OC)c1OC`, the XC50 is 289 nM. The result for `CN1CCCC1CCNCc1cccc(-c2cnc(N3CCCC(C)(C)C3)nc2)c1` (centres undefined) reads 927 nM; that for `COc1cc2c(cc1N1CC(C)NC(C)C1)N(C(=O)c1ccc(-c3ccc(-c4ncc[nH]4)cc3C)cc1)CC2` (centres undefined), 717 nM.

The compound `O=C(C1CC1)N1c2ccccc2CCc2ccccc21` showed an XC50 of 833 nM. As for `O=C1Nc2cccc3c2C1(CCCCCN1CCC(c2c[nH]c4ccncc24)CC1)CCC3` (centres undefined), the figure is 990 nM; as for `CCNc1cc(C(=O)N[C@@H](Cc2ccccc2)[C@H](O)CNC2CC3CCC2C3)cc(N2CCCCS2(=O)=O)c1` (some centres undefined), 237 nM; as for `CCC[C@@H]([C@@H](CC(C)C)C(=O)N[C@@H](CCCCNC(=O)c1cccc(OC)c1)C(=O)Nc1nccs1)N(O)C=O`, 104 nM.

In turn, `Nc1n[nH]c(-c2ccccc2Nc2ccnc3cc(-c4nccs4)ccc23)n1` came in with an XC50 of 1120 nM. The result for `COc1cc(SC)ccc1C(=O)N1CC(C)CC(C)C1` (centres undefined) reads 354 nM.

(Values after ChEMBL document CHEMBL1157539, “Thousands of chemical starting points for antimalarial lead identification” (Nature, 2010).)
